Data from paper PMC5814047, “Peptidic inhibitors of insulin-degrading enzyme with potential for dermatological applications discovered via phage display” (PLoS ONE, 2018).

What was measured:
IDE = biological target: T1, IDE (Homo sapiens, UniProt P14735); parameters: method as in PMID 24847884; conditions: read-out: IC50 against insulin; cited from earlier work
T1 construct: made in house; host or cells: bacteria
T1 sequence (P14735 1-1019): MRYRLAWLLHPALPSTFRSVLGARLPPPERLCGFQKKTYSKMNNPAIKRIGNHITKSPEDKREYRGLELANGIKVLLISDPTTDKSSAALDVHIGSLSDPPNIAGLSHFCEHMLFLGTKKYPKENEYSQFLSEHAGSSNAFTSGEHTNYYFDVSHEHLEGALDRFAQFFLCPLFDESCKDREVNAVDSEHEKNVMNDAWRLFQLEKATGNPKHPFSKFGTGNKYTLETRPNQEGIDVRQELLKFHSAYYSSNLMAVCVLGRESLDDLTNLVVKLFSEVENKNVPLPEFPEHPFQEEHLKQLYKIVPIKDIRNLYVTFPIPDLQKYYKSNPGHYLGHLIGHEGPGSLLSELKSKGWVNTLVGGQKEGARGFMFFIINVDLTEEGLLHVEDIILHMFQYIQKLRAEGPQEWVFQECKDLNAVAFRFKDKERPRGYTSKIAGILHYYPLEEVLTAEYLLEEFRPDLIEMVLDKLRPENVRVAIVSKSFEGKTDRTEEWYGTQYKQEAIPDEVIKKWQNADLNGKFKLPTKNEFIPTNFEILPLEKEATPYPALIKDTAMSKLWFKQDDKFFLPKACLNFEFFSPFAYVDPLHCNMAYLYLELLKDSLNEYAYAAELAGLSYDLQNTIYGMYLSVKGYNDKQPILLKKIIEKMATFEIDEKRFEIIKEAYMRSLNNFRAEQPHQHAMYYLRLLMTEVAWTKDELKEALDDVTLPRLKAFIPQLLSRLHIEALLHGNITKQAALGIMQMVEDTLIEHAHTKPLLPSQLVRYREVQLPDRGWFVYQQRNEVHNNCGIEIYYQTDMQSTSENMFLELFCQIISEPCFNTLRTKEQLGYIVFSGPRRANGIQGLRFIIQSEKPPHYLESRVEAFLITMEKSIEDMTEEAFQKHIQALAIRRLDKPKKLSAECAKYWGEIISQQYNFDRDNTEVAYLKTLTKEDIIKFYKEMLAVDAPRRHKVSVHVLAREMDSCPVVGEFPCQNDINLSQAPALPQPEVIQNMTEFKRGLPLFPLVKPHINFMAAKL

[1] = system: multiple matrix-metalloproteases (MMPs); experiment: Matrix Metalloproteinase (MMP) Inhibitor Profiling Kit, Fluorometric RED; type: biochemical; parameters: % activity relative to DMSO-only controls, single runs / % activity relative to DMSO-only controls, Mean: concentration or dose not given beside the values
Method: (§1) IDE activity was quantified by monitoring the degradation of Mca-[…](Dnp) (FRET1, 5 μM), fluoresceinated and biotinylated amyloid ß-protein (FAßB; 500 nM) or recombinant human insulin (50 nM) in PBS supplemented with 0.05% BSA. FRET1 degradation was measured by changes in fluorescence (λex = 340 nm, λem = 420 nm); FAßB degradation was monitored by fluorescence polarization (λex = 488 nm, λem = 525 nm), as described; and insulin degradation was quantified by ELISA. In vitro activity assays incorporated recombinant human IDE (1 nM) purified from bacteria. For quantitation of insulin degradation in primary murine skin fibroblasts, cells (1 x 10^5/well) were plated in 96-well plates and maintained in DMEM supplemented with 10% fetal bovine serum (FBS), 2mM glutamine, penicillin and streptomycin. After addition of insulin (10 nM or 100 nM), samples of conditioned medium were removed daily and quickly frozen, then insulin levels were quantified in parallel by ELISA according to manufacturer’s recommendations (Crystal Chem, Downers Grove, IL, USA). Assessment of the activity of P12-3A against a variety of matrix-metalloproteases was conducted using the Matrix Metalloproteinase (MMP) Inhibitor Profiling Kit, Fluorometric RED (Enzo Life Sciences, Inc., Farmingdale, NY, USA) according to manufacturer’s recommendations using the broad-spectrum MMP inhibitor, NNGH, as a positive control.
Supplementary file pone.0193101.s004.tif: S4 Fig Selectivity of P12-3A for IDE vis-à-vis other proteases. Activity of P12-3A (100 μM) against (A) multiple matrix-metalloproteases (MMPs) and (B) multiple peptidases of different protease classes. […] Data are mean ± SD, n = 8–16 per group. P<0.05 by 2-tailed Student’s t-test. […] See Materials and Methods for details. NEP, neprilysin; mCatD, murine cathepsin D; hCatD, human cathepsin D. (TIF) Click here for additional data file.

MMP-7 = biological target: T2, MMP-7 (Homo sapiens, UniProt P09237); experiment: MMP Inhibitor Profiling Kit, MMP-7; type: biochemical; conditions: MMP-7
T2 construct: purchased Enzo Life Sciences, Inc
T2 sequence (P09237 95-267): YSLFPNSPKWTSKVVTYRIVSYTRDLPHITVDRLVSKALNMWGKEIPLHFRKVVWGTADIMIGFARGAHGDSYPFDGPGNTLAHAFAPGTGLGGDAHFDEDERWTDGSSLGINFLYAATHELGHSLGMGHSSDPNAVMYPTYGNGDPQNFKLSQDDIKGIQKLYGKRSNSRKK
Method: as §1, with “control. […]” for “control.”

| SMILES | IC50 (IDE) | % activity relative to DMSO-only controls, Mean ([1]; MMP-1) | % activity relative to DMSO-only controls, Mean ([1]; MMP-2) | % activity relative to DMSO-only controls, Mean ([1]; MMP-3) | % activity relative to DMSO-only controls, Mean ([1]; MMP-8) | % activity relative to DMSO-only controls, Mean ([1]; MMP-9) | % activity relative to DMSO-only controls, Mean ([1]; MMP-12) | % activity relative to DMSO-only controls, Mean ([1]; MMP-13) | % activity relative to DMSO-only controls, Mean ([1]; MMP-14) | % activity relative to DMSO-only controls, Mean ([1]; MMP-19) | inhibition by positive control, MMPs ([1]; NNGH positive control, P< 0.01) | % activity relative to DMSO-only controls, Mean (MMP-7) |
| --- | --- | --- | --- | --- | --- | --- | --- | --- | --- | --- | --- | --- |
| NCCCC[C@@H]1NC(=O)/C=C/C(=O)N[C@H](C(N)=O)CCCCNC(=O)[C@@H](Cc2ccc(C(=O)c3ccccc3)cc2)NC(=O)[C@H](CC2CCCCC2)NC1=O [6bK] | ~100 nM |  |  |  |  |  |  |  |  |  |  |  |
| COc1ccc(S(=O)(=O)N(CC(=O)NO)CC(C)C)cc1 [NNGH, reference compound] |  | 1.0% | 0.122% | -1.2% | 5.1% | 4.0% | 1.9% | 6.5% | 24% | 38% | significant inhibition | 49.4% |
